This note sets out measurements from patent US20220064141A1, “BENZOPYRIDONE HETEROCYCLIC COMPOUND AND USE THEREOF” (BrightGene Bio-Medical Technology Co., Ltd., priority 2019, published 2022).

One assay has as its system NCI-H358 human non-small cell lung cancer cell with KRAS G12C mutation. Kind of assay: Cell Titer-Glo cell viability, NCI-H358 cells (72 h). It is filed as cell-based. The note with it: Homo sapiens, NCI-H358, 72 h, class symbols. The source says: Effect Example 1: Pharmacodynamic Assay 1 (Determination of the efficacy of the compounds of the present disclosure on NCI-H358 human non-small cell lung cancer cell with KRAS G12C mutation)
The following method was used to determine the effect of the compounds of the present disclosure on tumor cell proliferation.
For the KRAS G12C subtype, NCI-H358 non-small cell lung cancer cells with KRAS G12C mutation were used to determine the efficacy of the compounds in inhibiting cancer cell viability. NCI-H358 cells were cultured in a DMEM medium containing 10% fetal bovine serum, 100 U penicillin and […] streptomycin. The cells were cultured in an incubator with 5% CO2 at 37° C. Cancer cell viability was evaluated by determining the content of ATP with Cell Titer-Glo® kit (Luminescent Cell Viability Assay kit, please refer to the manufacturer's instructions for use) and evaluating the inhibition of cell growth.
The experimental method was proceeded in accordance with the steps in the instructions for the kit, and was described briefly as follows. The test compounds were first dissolved in DMSO to prepare stock solutions, and then the stock solutions were subjected to gradient dilution with the culture media of the corresponding cells, thereby preparing test samples. The final concentrations of the compounds were in the range of 30 μM to 0.01 nM. Tumor cells in logarithmic growth phase were seeded into a 96-well cell culture plate at an appropriate density. After the cell culture plate was left overnight in an incubator with 5% CO2 at 37° C., the test compound samples were added thereto and then the cells were further cultured for 72 hours. After the incubation was complete, an appropriate volume of Cell Titer-Glo® reagent was added into each well, and the cells were incubated at 37° C. for 1 to 4 hours. Then, the […] was read on a microplate reader.
Background: In ATP-based viability assays light output follows the ATP content of the culture.
One may read the IC50 as the concentration that gives 50% inhibition. Lower therefore signals greater potency in that assay. The molecule `C=CC(=O)N1CCN(c2c(C#N)c(=O)n(-c3ccccc3C(C)C)c3cc(-c4ccc(F)cc4O)c(Cl)cc23)[C@@H](C)C1` [Compound I-61] returned an IC50 of less than 100 nM. `C=CC(=O)N1CCN(c2c(C#N)c(=O)n(-c3ccccc3C(C)C)c3cc(-c4ccc5[nH]ncc5c4)c(Cl)cc23)[C@@H](C)C1` [Compound I-74] showed an IC50 of more than 1000 nM. Molecule `C=CC(=O)N1CCN(c2c(C#N)c(=O)n(-c3ccccc3C(C)C)c3cc(-c4ccccc4C4CC4)c(Cl)cc23)[C@@H](C)C1` [Compound I-75] had an IC50 of 100 to 1000 nM. `C=CC(=O)N1CCN(c2c(C#N)c(=O)n(-c3ccccc3C(C)C)c3cc(-c4cccc(O)c4F)c(Cl)cc23)[C@@H](C)C1` [Compound I-71] registered an IC50 of 100 to 1000 nM.

Molecule `C=CC(=O)N1CCN(c2c(C#N)c(=O)n(-c3ccccc3C(C)C)c3cc(-c4ccc(F)cc4)c(Cl)cc23)[C@@H](C)C1` [Compound I-15] came in with an IC50 of 100 to 1000 nM. On the same count and under the same terms, next, `C=CC(=O)N1CCN(c2c(C#N)c(=O)n(-c3ccccc3C(C)C)c3cc(-c4c(OC)ccc5ccccc45)c(Cl)cc23)[C@@H](C)C1` [Compound I-31]: less than 100 nM; `C=CC(=O)N1CCN(c2c(C#N)c(=O)n(-c3ccccc3C(C)C)c3cc(-c4ccc(Cl)cc4)c(Cl)cc23)[C@@H](C)C1` [Compound I-11]: more than 1000 nM; `C=CC(=O)N1CCN(c2c(C#N)c(=O)n(-c3ccccc3C(C)C)c3cc(-c4cc(Cl)ccc4F)c(Cl)cc23)[C@@H](C)C1` [Compound I-37]: 100 to 1000 nM.

`C=CC(=O)N1CCN(c2c(C#N)c(=O)n(-c3ccccc3C(C)C)c3cc(-c4cnn(CCO)c4)c(Cl)cc23)[C@@H](C)C1` [Compound I-58] yielded an IC50 of 100 to 1000 nM. Molecule `C=CC(=O)N1CCN(c2c(C#N)c(=O)n(-c3ccccc3C(C)C)c3cc(-c4ccc5c(c4)CC5)c(Cl)cc23)[C@@H](C)C1` [Compound I-47] came in with an IC50 of 100 to 1000 nM.

`C=CC(=O)N1CCN(c2c(C#N)c(=O)n(-c3ccccc3C(C)C)c3cc(-c4cccc(C(C)=O)c4)c(Cl)cc23)[C@@H](C)C1` [Compound I-44] showed an IC50 of 100 to 1000 nM. Still for that read-out and setting: next, `C=CC(=O)N1CCN(c2c(C#N)c(=O)n(-c3ccccc3C(C)C)c3cc(-c4cnc(N)nc4)c(Cl)cc23)[C@@H](C)C1` [Compound I-62]: 100 to 1000 nM. Still for that read-out and setting: in the case of `C=CC(=O)N1CCN(c2c(C#N)c(=O)n(-c3ccccc3C(C)C)c3cc(-c4cn[nH]c4)c(Cl)cc23)[C@@H](C)C1` [Compound I-54] it was 100 to 1000 nM. Take `C=CC(=O)N1CCN(c2c(C#N)c(=O)n(-c3ccccc3C(C)C)c3cc(-c4cccc(F)c4)c(Cl)cc23)[C@@H](C)C1` [Compound I-14]: the IC50 lay within 100 to 1000 nM.

In turn, `C=CC(=O)N1CCN(c2c(C#N)c(=O)n(-c3ccccc3C(C)C)c3cc(-c4ccccc4C(F)(F)F)c(Cl)cc23)[C@@H](C)C1` [Compound I-46] yielded a 50% inhibitory concentration (IC50) of more than 1000 nM.

Staying with this assay, now noted: class symbols.
The molecule `C=C(F)C(=O)N1CCN(c2c(C#N)c(=O)n(-c3ccccc3C(C)C)c3cc(-c4c(C)ccc5[nH]ncc45)c(Cl)cc23)[C@@H](C)C1` (single isomer, unassigned) [Compound I-6-1] registered an IC50 of more than 1000 nM. On to `C=CC(=O)N1CCN(c2c(C#N)c(=O)n(-c3c(C)ccnc3C(C)C)c3cc(-c4c(OC)ccc(Cl)c4F)c(Cl)cc23)[C@@H](C)C1` [Compound I-84-2], for which the IC50 lay in the range of 100 to 1000 nM. On the same count and under the same terms, next, `C=CC(=O)N1CCN(c2c(C#N)c(=O)n(-c3c(C(C)C)ncnc3C(C)C)c3cc(-c4c(OC)ccc(Cl)c4F)c(Cl)cc23)[C@@H](C)C1` [Compound I-87-2]: 100 to 1000 nM; `C=C(F)C(=O)N1CCN(c2c(C#N)c(=O)n(-c3ccccc3C(C)C)c3cc(-c4c(C)ccc5[nH]ncc45)c(Cl)cc23)[C@@H](C)C1` (single isomer, unassigned) [Compound I-6-2]: less than 100 nM; `C=CC(=O)N1CCN(c2c(C#N)c(=O)n(-c3ccccc3C(C)C)c3cc(-c4c(OC)ccc(Cl)c4F)c(Cl)cc23)[C@@H](C)C1` (single isomer, unassigned) [Compound I-7-1]: more than 1000 nM.
